Among the data in patent US20200255478A1, “NOVEL COMPOUNDS ACTIVATING THE NRF2 PATHWAY” (Almirall, S.A., priority 2017, published 2020) are IC50 values, retold here.

Starred links: 1 amine or outer side, 2 acyl side, 3 side chain; linkers in the order of their positions; H or OH if unused. Positions of bridges follow the written chain, without caps; N, C: chain ends. Non-standard residues stand in square brackets, D forms with d. Residues, ends and D or L forms follow the SMILES beside them. *: point of attachment. Trp(2-yl) = O=C([C@H](Cc1c([*:3])[nH]c2ccccc12)N[*:1])[*:2]; Pyridine(3,5-bisCH2) = c1ncc(C[*:2])cc1C[*:1]; X1 = O=C([C@@H]1C[C@H](N[*:3])CN1[*:1])[*:2]; X7 = c1ccc(-c2ccccc2C[*:2])c(C[*:1])c1; oXylylene = c1ccc(C[*:2])c(C[*:1])c1; Stearoyl = CCCCCCCCCCCCCCCCCC(=O)*; βAla = NCCC(=O)O

One may read the IC50 as the point on the concentration scale where inhibition reaches its midpoint.

The target of one assay is Keap1-Maltose Binding Protein (MBP tag) (Homo sapiens, UniProt Q14145). Briefly: Nrf2-Keap1 HTRF (TR-FRET) binding assay: displacement of biotinylated ETGE peptide from Keap1-MBP.
Chain of Keap1-Maltose Binding Protein (MBP tag) (Q14145 whole entry): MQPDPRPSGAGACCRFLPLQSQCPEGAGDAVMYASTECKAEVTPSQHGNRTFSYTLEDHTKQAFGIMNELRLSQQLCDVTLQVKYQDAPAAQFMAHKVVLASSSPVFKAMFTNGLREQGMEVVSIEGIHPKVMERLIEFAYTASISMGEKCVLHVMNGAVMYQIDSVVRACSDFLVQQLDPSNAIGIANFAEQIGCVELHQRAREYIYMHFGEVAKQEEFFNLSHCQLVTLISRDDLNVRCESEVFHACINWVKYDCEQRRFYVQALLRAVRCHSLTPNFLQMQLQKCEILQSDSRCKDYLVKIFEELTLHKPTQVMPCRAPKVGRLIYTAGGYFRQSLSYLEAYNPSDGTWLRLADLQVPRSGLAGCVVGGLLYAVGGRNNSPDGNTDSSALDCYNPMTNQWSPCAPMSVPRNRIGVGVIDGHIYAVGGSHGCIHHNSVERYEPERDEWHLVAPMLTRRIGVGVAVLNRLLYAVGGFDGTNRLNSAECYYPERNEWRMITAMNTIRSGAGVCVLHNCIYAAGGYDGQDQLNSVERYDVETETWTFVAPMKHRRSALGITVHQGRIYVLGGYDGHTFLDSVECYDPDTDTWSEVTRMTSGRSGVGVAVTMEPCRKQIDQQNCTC
Details: not given
In the case of `CCCCCCCCCCCCCCCCCC(=O)N1CCC[C@H]1C(=O)N[C@@H](CCC(N)=O)C(=O)N[C@H]1CSCc2ccccc2CSC[C@@H](C(=O)N[C@@H](CC(C)C)C(=O)N2CCC[C@@H]2C(N)=O)NC(=O)[C@H](CCC(=O)O)NC(=O)CNC(=O)[C@H]([C@@H](C)O)NC(=O)[C@H](CCC(=O)O)NC(=O)[C@@H]2CCCN2C(=O)[C@H](CC(=O)O)NC1=O` [Example 76, {[Stearyl-Pro-Gln-Cys(&^1)-Asp-Pro-Glu-Thr-Gly-Glu-Cys(&^2)-Leu-D-Pro-NH2][&^1(1,2-phenylenediyl)dimethylene^2]}] (Stearoyl-PQCDPETGECL[dP]-NH2; linker 3-10 via oXylylene), the IC50 lay in the range of 1 to 100 nM.

`CCCCCCCC/C=C\CCCCCCCC(=O)N[C@H]1C[C@H]2C(=O)N[C@@H](CCC(N)=O)C(=O)N[C@H]3CSCc4ccccc4CSC[C@H](NC(=O)[C@H](CCC(=O)O)NC(=O)CNC(=O)[C@H]([C@@H](C)O)NC(=O)[C@H](CCC(=O)O)NC(=O)[C@@H]4CCCN4C(=O)[C@H](CC(=O)O)NC3=O)C(=O)N[C@@H](CC(C)C)C(=O)N3CCC[C@@H]3C(=O)N2C1` [Example 88, {[&^1Pro((4S)-NH-oleyl)-Gln-Cys(&^2)-Asp-Pro-Glu-Thr-Gly-Glu-Cys(&^3)-Leu-D-Pro&^1][&^2(1,2-phenylenediyl)dimethylene&^3]}]: the IC50 was below 1 nM.

Compound `CC(=O)N[C@H]1Cc2c([nH]c3ccccc23)SC[C@@H](C(N)=O)NC(=O)[C@H](CCC(=O)O)NC(=O)CNC(=O)[C@H]([C@@H](C)O)NC(=O)[C@H](CCC(=O)O)NC(=O)[C@H](CCC(=O)O)NC(=O)[C@H](CC(=O)O)NC1=O` [Example 7, Acetyl-Trp(indol-2-yl-&^1)-Asp-Glu-Glu-Thr-Gly-Glu-Cys(&^1)-NH2] (Ac-[Trp(2-yl)]DEETGEC-NH2; thioether 1-8) returned a half-maximal inhibitory concentration (IC50) of 1 to 100 nM.

For the compound `CCCCCCCCCCCCCCCCCC(=O)NCCCC[C@@H]1NC(=O)[C@H]2CCCN2C(=O)[C@H](CC(C)C)NC(=O)[C@@H]2CSCc3ccccc3CSC[C@H](NC(=O)[C@H](CCC(N)=O)NC1=O)C(=O)N[C@@H](CC(=O)O)C(=O)N1CCC[C@H]1C(=O)N[C@@H](CCC(=O)O)C(=O)N[C@@H]([C@@H](C)O)C(=O)NCC(=O)N[C@@H](CCC(=O)O)C(=O)N2` [Example 91, {[&^1Lys(N^6-Stearyl)-Gln-Cys(&^2)-Asp-Pro-Glu-Thr-Gly-Glu-Cys(&^3)-Leu-D-Pro&^1][&^2(1,2-phenylenediyl)dimethylene&^3]}], the IC50 was below 1 nM.

As for `CCCCCCCCCCCCCCCCCC(=O)N[C@H]1C[C@H]2C(=O)N[C@@H](CCC(N)=O)C(=O)N[C@H]3CSCc4ccccc4CSC[C@H](NC(=O)[C@H](CCC(=O)O)NC(=O)CNC(=O)[C@H]([C@@H](C)O)NC(=O)[C@H](CCC(=O)O)NC(=O)[C@@H]4CCCN4C(=O)[C@H](CC(=O)O)NC3=O)C(=O)N[C@@H](CCCCN)C(=O)N3CCC[C@@H]3C(=O)N2C1` [Example 82, {[&^1Pro((4S)-NH-Stearyl)-Gln-Cys(&^2)-Asp-Pro-Glu-Thr-Gly-Glu-Cys(&^3)-Lys-D-Pro&^1][&^2(1,2-phenylenediyl)dimethylene&^3]}] (cyclo(CDPETGECK[dP][X1](Stearoyl)Q); linker 1-8 via oXylylene), the IC50 was 1 to 100 nM.

Regarding `CC(C)C[C@H](NC(=O)[C@@H]1CSc2[nH]c3ccccc3c2C[C@H](NC(=O)[C@H](CCC(N)=O)NC(=O)[C@@H](N)CC(C)C)C(=O)N[C@@H](CC(=O)O)C(=O)N[C@@H](CCC(=O)O)C(=O)N[C@@H](CCC(=O)O)C(=O)N[C@@H]([C@@H](C)O)C(=O)NCC(=O)N[C@@H](CCC(=O)O)C(=O)N1)C(=O)N1CCC[C@H]1C(=O)O` [Example 1, H-Leu-Gln-Trp(indol-2-yl-&^1)-Asp-Glu-Glu-Thr-Gly-Glu-Cys(&^1)-Leu-Pro-OH] (H-LQ[Trp(2-yl)]DEETGECLP-OH; thioether 3-10), the IC50 lay within 1 to 100 nM.

Staying with this assay, now noted: HTRF (TR-FRET); displacement of ETGE-biotin from Keap1-MBP; values banded into grades; read-out: Binding (IC50) ETGE-Keap1.
`CC(C)C[C@H](NC(=O)[C@@H]1CSCc2ccccc2CSC[C@H](NC(=O)[C@H](CCC(N)=O)NC(=O)[C@@H](N)CC(C)C)C(=O)N[C@@H](CC(=O)O)C(=O)N[C@@H](C)C(=O)N[C@@H](CCC(=O)O)C(=O)N[C@@H]([C@@H](C)O)C(=O)NCC(=O)N[C@@H](CCC(=O)O)C(=O)N1)C(=O)N1CCC[C@H]1C(=O)NCCC(=O)N[C@@H](CCCNC(=N)N)C(=O)N[C@@H](CCCCN)C(=O)N[C@@H](CCCCN)C(=O)N[C@@H](CCCNC(=N)N)C(=O)N[C@@H](CCCNC(=N)N)C(=O)N[C@@H](CCC(N)=O)C(=O)N[C@@H](CCCNC(=N)N)C(=O)N[C@@H](CCCNC(=N)N)C(=O)N[C@@H](CCCNC(=N)N)C(N)=O` [Example 18]: the 50% inhibitory concentration (IC50) was in the range of 1 to 100 nM.

On to `Cc1cc(C)c2c(C)c1CSC[C@@H](C(=O)N[C@@H](CC(C)C)C(=O)N1CCC[C@H]1C(=O)NCCC(=O)N[C@@H](CCCNC(=N)N)C(=O)N[C@@H](CCCCN)C(=O)N[C@@H](CCCCN)C(=O)N[C@@H](CCCNC(=N)N)C(=O)N[C@@H](CCCNC(=N)N)C(=O)N[C@@H](CCC(N)=O)C(=O)N[C@@H](CCCNC(=N)N)C(=O)N[C@@H](CCCNC(=N)N)C(=O)N[C@@H](CCCNC(=N)N)C(N)=O)NC(=O)[C@H](CCC(=O)O)NC(=O)CNC(=O)[C@H]([C@@H](C)O)NC(=O)[C@H](CCC(=O)O)NC(=O)[C@@H]1CCCN1C(=O)[C@H](CC(=O)O)NC(=O)[C@@H](NC(=O)[C@H](CCC(N)=O)NC(=O)[C@@H](N)CC(C)C)CSC2` [Example 67], for which the IC50 was in the range of 1 to 100 nM.

As to `CCCCCCCCCCCCCCCCCC(=O)NCCC(=O)N[C@@H](CC(C)C)C(=O)N[C@@H](CCC(N)=O)C(=O)N[C@H]1CSCc2cncc(c2)CSC[C@@H](C(=O)N[C@@H](CC(C)C)C(=O)N2CCC[C@H]2C(N)=O)NC(=O)[C@H](CCC(=O)O)NC(=O)CNC(=O)[C@H]([C@@H](C)O)NC(=O)[C@H](CCC(=O)O)NC(=O)[C@@H]2CCCN2C(=O)[C@H](CC(=O)O)NC1=O` [Example 65, {[Stearyl-βAla-Leu-Gln-Cys(&^1)-Asp-Pro-Glu-Thr-Gly-Glu-Cys(&^2)-Leu-Pro-NH2][&^1(pyridine)3,5-diyldimethylene&^2]}] ({Stearoyl-βAla}-LQCDPETGECLP-NH2; linker 3-10 via Pyridine(3,5-bisCH2)), the IC50 was below 1 nM.

Take `CC(=O)N[C@H]1CSCc2ccccc2CSC[C@@H](C(N)=O)NC(=O)[C@H](CCC(=O)O)NC(=O)CNC(=O)[C@H]([C@@H](C)O)NC(=O)[C@H](CCC(=O)O)NC(=O)[C@H](C)N(C)C(=O)[C@H](CC(=O)O)NC1=O` [Example 43, {[Acetyl-Cys(&^1)-Asp-MeAla-Glu-Thr-Gly-Glu-Cys(&^2)-NH2][&^1(1,2-phenylenediyl)dimethylene&^2]}]: the IC50 fell in the range of 1 to 100 nM.

For the compound `CC(=O)N[C@H]1CSCc2ccccc2-c2ccccc2CSC[C@@H](C(N)=O)NC(=O)[C@H](CCC(=O)O)NC(=O)CNC(=O)[C@H]([C@@H](C)O)NC(=O)[C@H](CCC(=O)O)NC(=O)[C@H](CCC(=O)O)NC(=O)[C@H](CC(=O)O)NC1=O` [Example 24, {[Acetyl-Cys(&^1)-Asp-Glu-Glu-Thr-Gly-Glu-Cys(&^2)-NH2][&^1(1,1′-biphenyl)2,2′-diyldimethylene&^2]}] (Ac-CDEETGEC-NH2; linker 1-8 via X7), the concentration for half-maximal inhibition (IC50) was 1 to 100 nM.

Turning to `CC(C)C[C@H](NC(=O)[C@@H]1CSCc2cccc(c2)CSC[C@H](NC(=O)[C@H](CCC(N)=O)NC(=O)[C@@H](N)CC(C)C)C(=O)N[C@@H](CC(=O)O)C(=O)N[C@@H](C)C(=O)N[C@@H](CCC(=O)O)C(=O)N[C@@H]([C@@H](C)O)C(=O)NCC(=O)N[C@@H](CCC(=O)O)C(=O)N1)C(=O)N1CCC[C@H]1C(=O)NCCC(=O)N[C@@H](CCCNC(=N)N)C(=O)N[C@@H](CCCCN)C(=O)N[C@@H](CCCCN)C(=O)N[C@@H](CCCNC(=N)N)C(=O)N[C@@H](CCCNC(=N)N)C(=O)N[C@@H](CCC(N)=O)C(=O)N[C@@H](CCCNC(=N)N)C(=O)N[C@@H](CCCNC(=N)N)C(=O)N[C@@H](CCCNC(=N)N)C(N)=O` [Example 16], the half-maximal inhibitory concentration (IC50) was below 1 nM.

For the compound `CCCCCCCCCCCCCCCCCC(=O)NCCC(=O)N[C@H]1CSCc2ccccc2CSC[C@@H](C(N)=O)NC(=O)[C@H](CCC(=O)O)NC(=O)CNC(=O)[C@H]([C@@H](C)O)NC(=O)[C@H](CCC(=O)O)NC(=O)[C@H](C)NC(=O)[C@H](CC(=O)O)NC1=O` [Example 28, {[Stearyl-βAla-Cys(&^1)-Asp-Ala-Glu-Thr-Gly-Glu-Cys(&^2)-NH2][&^1(1,2-phenylenediyl)dimethylene&^2]}], the IC50 is 1 to 100 nM.

`CC(C)C[C@H](NC(=O)[C@@H]1CSCc2cccc(c2)CSC[C@H](NC(=O)[C@H](CCC(N)=O)NC(=O)[C@@H](N)CC(C)C)C(=O)N[C@@H](CC(=O)O)C(=O)N[C@@H](CCC(=O)O)C(=O)N[C@@H](CCC(=O)O)C(=O)N[C@@H]([C@@H](C)O)C(=O)NCC(=O)N[C@@H](CCC(=O)O)C(=O)N1)C(=O)N1CCC[C@H]1C(=O)NCCC(=O)N[C@@H](CCCNC(=N)N)C(=O)N[C@@H](CCCCN)C(=O)N[C@@H](CCCCN)C(=O)N[C@@H](CCCNC(=N)N)C(=O)N[C@@H](CCCNC(=N)N)C(=O)N[C@@H](CCC(N)=O)C(=O)N[C@@H](CCCNC(=N)N)C(=O)N[C@@H](CCCNC(=N)N)C(=O)N[C@@H](CCCNC(=N)N)C(N)=O` [Example 9]: the half-maximal inhibitory concentration (IC50) is 1 to 100 nM.

As to `CCCCCCCCCCCCCCCCCC(=O)NCCC(=O)N[C@@H](CC(C)C)C(=O)N[C@@H](CC(C)C)C(=O)N[C@H]1CSCC2(COC2)CSC[C@@H](C(=O)N[C@@H](CC(C)C)C(=O)N[C@@H](CC(C)C)C(N)=O)NC(=O)[C@H](CCC(=O)O)NC(=O)CNC(=O)[C@H]([C@@H](C)O)NC(=O)[C@H](CCC(=O)O)NC(=O)[C@@H]2CCCN2C(=O)[C@H](CC(=O)O)NC1=O` [Example 99, {[Stearyl-βAla-Leu-Leu-Cys(&^1)-Asp-Pro-Glu-Thr-Gly-Glu-Cys(&^2)-Leu-Leu-NH2][&^1(3,3-oxetanediyl)dimethylene&^2]}], the IC50 was below 1 nM.

Consider `CC(C)C[C@H](NC(=O)[C@@H]1CSCc2cc3ccccc3cc2CSC[C@H](NC(=O)[C@H](CCC(N)=O)NC(=O)[C@@H](N)CC(C)C)C(=O)N[C@@H](CC(=O)O)C(=O)N[C@@H](C)C(=O)N[C@@H](CCC(=O)O)C(=O)N[C@@H]([C@@H](C)O)C(=O)NCC(=O)N[C@@H](CCC(=O)O)C(=O)N1)C(=O)N1CCC[C@H]1C(=O)NCCC(=O)N[C@@H](CCCNC(=N)N)C(=O)N[C@@H](CCCCN)C(=O)N[C@@H](CCCCN)C(=O)N[C@@H](CCCNC(=N)N)C(=O)N[C@@H](CCCNC(=N)N)C(=O)N[C@@H](CCC(N)=O)C(=O)N[C@@H](CCCNC(=N)N)C(=O)N[C@@H](CCCNC(=N)N)C(=O)N[C@@H](CCCNC(=N)N)C(N)=O` [Example 30], for which the half-inhibitory concentration (IC50) lay in the range of 1 to 100 nM.
